Assay results from PMC3984256, “A PCNA-Derived Cell Permeable Peptide Selectively Inhibits Neuroblastoma Cell Growth” (PLoS ONE, 2014).
Where a SMILES comes first, the peptide text is derived from it. [ ]: non-standard residue; d: D form.

Tests used:
[1] = tested on: intracellular LIGI or FEN1 level; assay: Western blot of intracellular LIGI or FEN1 level (data not shown); type: cell-based
[2] = tested on: breast, lung, and pancreatic cancer cell lines; assay: Toxicity to breast, lung, and pancreatic cancer cell lines (data not shown); type: cell-based; details: in comparison with non-malignant cell lines of respective tissue origins
[3] = tested on: SK-N-BE(2)c cells, DNA synthesis; assay: BrdU incorporation assay; type: cell-based, human; details: peptide 7.5 h then 10 µM BrdU 30 min, vs R9-srbPep, triplicates
Method: SK-N-BE(2)c cells were treated with the peptides for 7.5 h and then incubated in 10 ìmol/L BrdU for an additional 30 min in the continuous presence of the peptides. Cells were detached with trypsin and fixed in Cytofix/Cytoperm buffer according to the manufacturer's instructions (BD Bioscience, San Jose, CA). Fixed cells were treated with DNase to expose incorporated BrdU and stained with FITC-conjugated anti-BrdU antibody (BD Bioscience) for 1 h at room temperature. Samples were analyzed by flow cytometry to quantify the amount of BrdU incorporation. Percentages of FITC-positive cells were determined by analysis with the FlowJo software. Statistical analysis was conducted using a two-tailed t-test.

[4] = tested on: PCNA and POLD3 co-localization in SK-N-AS NB cells; assay: PCNA/POLD3 co-localization, immunofluorescence; type: cell-based, human; details: synchronized, 30 µM peptide 6 h after mimosine release
Method: Cells were seeded at 1×10^5/ml onto a chamber slide and were allowed to attach overnight. To analyze the interaction of PCNA with FEN1, LIGI, or Pol ä, we first synchronize cells at the G1/S boundary. The synchronization is achieved by starving cells in medium containing 0.25% FBS for 24 h. Cells were further cultured in the complete medium containing 400 µM of mimosine for 24 h. To release cells into S phase, cells were washed and incubated in mimosine-free medium containing 30 µM R9-caPep or R9-srbPep for 6 h. We pre-determined that the majority of cells were in the S-phase 6 h after mimosine was removed (data not shown). Cells were fixed in ice-cold methanol:acetone (50%:50%) for 10 min or in 4% paraformaldehyde for 20 min at room temperature. Cells were incubated with a goat polyclonal anti-PCNA antibody (Santa Cruz) and a mouse monoclonal anti-FEN1 antibody (Santa Cruz), a mouse anti-POLD3 antibody (Sigma, St. Louis, MO), or a mouse anti-LIGI antibody (Abcam, Cambridge, MA) for 1 h at room temperature. After being washed with PBS, cells were incubated with Alexa Fluor 488 conjugated anti-mouse IgG and Alexa Fluor 555 conjugated anti-goat IgG antibodies (Invitrogen, Grand Island, NY) for 1 h. Cells were mounted in Vectashield with DAPI (Vector Labs, Burlingame, CA) and visualized by a confocal microscope.

[5] = tested on: non-malignant 7SM0032 cells; assay: Cell cycle analysis by PI flow cytometry, 7SM0032; type: cell-based, human; details: 7SM0032, same treatment (40 µM, 48 h), vs NB cells
Method: Cells were seeded at 1×10^5/ml. Once attached, cells were treated with or without R9-caPep for 48 hours. Cells were fixed in 60% ethanol and stained with propidium iodide (PI). The cellular PI fluorescence intensity was determined by flow cytometry. The flow cytometry data were analyzed by the FlowJo program to model various cell populations.

CC[C@H](C)[C@H](NC(=O)CNC(=O)[C@H](CC(C)C)NC(=O)[C@H](CS)NC(=O)[C@H](CS)NC(=O)[C@@H](CCCNC(=N)N)NC(=O)[C@@H](CCCNC(=N)N)NC(=O)[C@@H](CCCNC(=N)N)NC(=O)[C@@H](CCCNC(=N)N)NC(=O)[C@@H](CCCNC(=N)N)NC(=O)[C@@H](CCCNC(=N)N)NC(=O)[C@@H](CCCNC(=N)N)NC(=O)[C@@H](CCCNC(=N)N)NC(=O)[C@H](N)CCCNC(=N)N)C(=O)N1CCC[C@H]1C(=O)N[C@@H](CCC(=O)O)C(=O)N[C@@H](CCC(N)=O)C(=O)N[C@@H](CCC(=O)O)C(=O)N[C@@H](Cc1ccc(O)cc1)C(=O)O [R9-caPep] (H-[dR][dR][dR][dR][dR][dR][dR][dR][dR]CCLGIPEQEY-OH; N-terminus and C-terminus assumed)
intracellular LIGI or FEN1 level [1]: didn't affect intracellular LIGI or FEN1 level | toxicity to breast, lung, and pancreatic cancer cell lines vs non-malignant lines [2]: selectively toxic to breast, lung, and pancreatic cancer cell lines | percentage of BrdU-positive cells [3]: significant reduction in the percentage of BrdU-positive cells | recruitment of POLD3 to PCNA [4]: did not seem to affect the recruitment of POLD3 to PCNA | effect on cell cycle progression in non-malignant cells [5]: significantly less effect on cell cycle progression and cell survival
